The results in this text go back to ChEMBL document CHEMBL1149507, “Synthesis, structure, and bioactivity of N'-substituted benzylidene-3,4,5-trimethoxybenzohydrazide and 3-acetyl-2-substituted phenyl-5-(3,4,5-trimethoxyphenyl)-2,3-dihydro-1,3,4-oxadiazole derivatives” (Bioorg Med Chem Lett, 2006).

What is called inhibition is the drop in the measured response relative to a control, in per cent. What is called IC50 is the concentration that gives 50% inhibition. High values mean weaker potency in that assay, low ones greater potency in that assay.

For assay [1], the system named is PC-3. Kind of assay: Antiproliferative activity against human PC3 cell line at 5 uM by MTT assay. It counts as functional.
Assay [2] concerns BGC-823. Kind of assay: Antiproliferative activity against human BGC823 cell line at 1 uM by MTT assay. Type of assay: functional. Background: Formazan colour is commonly taken as a measure of viable cells.
Assay [3] has as its system BGC-823. Kind of assay: Antiproliferative activity against human BGC823 cell line at 5 uM by MTT assay. Type of assay: functional.
For assay [4], the system named is Bcap37. Kind of assay: Antiproliferative activity against human Bcap37 cell line at 1 uM by MTT assay. It counts as functional.
The test system of assay [5] is Bcap37. Kind of assay: Antiproliferative activity against human Bcap37 cell line at 5 uM by MTT assay. It counts as functional.
Assay [6] has as its system PC-3. Kind of assay: Antiproliferative activity against human PC3 cell line by MTT assay. Type of assay: functional, cell-based.
The subject of assay [7] is PC-3. Kind of assay: Antiproliferative activity against human PC3 cell line at 1 uM by MTT assay. It counts as functional.

With `COc1ccc(C2OC(c3cc(OC)c(OC)c(OC)c3)=NN2C(C)=O)c(OC)c1` (configuration not stated), the inhibition at 5 µM with PC-3 [1] was 92%; in the assay with BGC-823 [3], -3.1%; in the assay with Bcap37 [5], 2.5%. The values for the inhibition at 1 µM with BGC-823 [2], with Bcap37 [4] and with PC-3 [7] were 6.3%, -0.3% and 69.5%, respectively. In the assay on PC-3 [6], this compound gave an IC50 of 300 nM.
